Results taken from patent US9326513B2, “Fungicidal compositions” (Syngenta Participations AG, priority 2011, dated 2016).

Columns and labels:
Type in all cases: in vivo
Settings in all cases: foliar, compared to untreated control leaf disks, read-out: disease control
[1] = test system: Puccinia recondita f. sp. tritici; assay: Puccinia recondita f. sp. tritici / wheat / leaf disc curative (brown rust)
Description: Puccinia recondita f. sp. tritici/Wheat/Leaf Disc Curative (Brown Rust) Wheat leaf segments cv. Kanzler are placed on agar in multiwell plates (24-well format). The leaf segments are inoculated with a spore suspension of the fungus. Plates were stored in darkness at 19° C. and 75% rh. The formulated test compound diluted in water was applied 1 day after inoculation.

[2] = test system: Blumeria graminis f. sp. tritici (Erysiphe graminis f. sp. tritici); assay: Blumeria graminis f. sp. tritici / wheat / leaf disc preventative (powdery mildew on wheat)
Outline: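 Wheat leaf segments (cv. Kanzler) on agar were sprayed with formulated compound in water, inoculated with powdery mildew 1 day later, and kept at 20° C, 60% rh (24 h dark, then 12 h light/12 h dark). Percent disease control versus untreated scored 6-8 days after application; tested at 200 ppm.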

[3] = test system: Puccinia recondita f. sp. tritici; assay: Puccinia recondita f. sp. tritici / wheat / leaf disc preventative (brown rust)
Excerpt: Puccinia recondita f. sp. tritici/Wheat/Leaf Disc Preventative (Brown Rust) Wheat leaf segments cv. Kanzler were placed on agar in multiwell plates (24-well format) and sprayed with the formulated test compound diluted in water. The leaf disks were inoculated with a spore suspension of the fungus 1 day after application.

Pyrenophora teres = Pyrenophora teres / barley / leaf disc preventative (net blotch)
Excerpt: Pyrenophora teres/Barley/Leaf Disc Preventative (Net Blotch) Barley leaf segments cv. Hasso were placed on agar in a multiwell plate (24-well format) and sprayed with the formulated test compound diluted in water. The leaf segments were inoculated with a spore suspension of the fungus 2 days after application.

Measured: pest or weed control at 200 ppm

CCN(C)/C=N/c1cc(-c2ccccc2)c(OC2CC=CC2)nc1C [Q.262]
≥ 50%: [1] | [2] | [3] | Pyrenophora teres

CCN(C)/C=N/c1cc(Br)c(OCCCc2ccc(F)cc2)nc1C [Q.131]
≥ 50%: [1] | [2] | [3] | Pyrenophora teres

CCN(C)/C=N/c1cc(Br)c(O[C@@H](C)c2cc(F)cc(F)c2)nc1C [Q.260]
≥ 50%: [1] | [2] | [3] | Pyrenophora teres

CCN(C)/C=N/c1ccc(O[C@H]2CC[C@@H](C(C)C)CC2)nc1C [Q.183]
≥ 50%: [1] | [2] | [3] | Pyrenophora teres

CCN(C)/C=N/c1cc(I)c(O[C@H]2CC[C@@H](C(C)C)CC2)nc1C [Q.180]
≥ 50%: [1] | [2] | [3] | Pyrenophora teres

CCN(C)/C=N/c1cc(Br)c(OC2CCc3cc(F)ccc3C2)nc1C (stereo not drawn) [Q.025]
≥ 50%: [1] | [2] | [3] | Pyrenophora teres

CCN(C)/C=N/c1cc(Br)c(OCc2ccc(C)cc2C)nc1C [Q.324]
≥ 50%: [1] | [2] | [3] | Pyrenophora teres

CCN(C)/C=N/c1cc(Br)c(O[C@H](C)c2cc(F)cc(F)c2)nc1C [Q.261]
≥ 50%: [1] | [2] | [3] | Pyrenophora teres

CCN(C)/C=N/c1cc(Br)c(OCCc2ccc(C)cc2)nc1C [Q.364]
≥ 50%: [1] | [2] | [3] | Pyrenophora teres

CCN(C)/C=N/c1cc(Br)c(OC2CCc3cccc(OC)c3C2)nc1C (stereo not drawn) [Q.024]
≥ 50%: [1] | [2] | [3] | Pyrenophora teres

CCCc1cccc(C(C)Oc2nc(C)c(/N=C/N(C)CC)cc2Br)c1 (stereo not drawn) [Q.344]
≥ 50%: [1] | [2] | [3] | Pyrenophora teres

C=C(C)c1nc(OCc2ccccc2C)c(Br)cc1/N=C/N(C)CC [Q.400]
≥ 50%: [1] | [2] | [3] | Pyrenophora teres

CCN(C)/C=N/c1cc(Br)c(OCC2CCCC(C#N)C2)nc1C (stereo not drawn) [Q.032]
≥ 50%: [1] | [2] | [3] | Pyrenophora teres

CCN(C)/C=N/c1cc(Br)c(OCC(C)c2ccccc2)nc1C (stereo not drawn) [Q.223]
≥ 50%: [1] | [2] | [3] | Pyrenophora teres

CCN(C)/C=N/c1cc(Br)c(OC(C)c2cccc(C(C)F)c2)nc1C (stereo not drawn) [Q.292]
≥ 50%: [1] | [2] | [3] | Pyrenophora teres

CCN(C)/C=N/c1cc(Br)c(OCc2cccnc2)nc1C [Q.106]
≥ 50%: [1] | [2] | [3] | Pyrenophora teres

CC(=O)N1CCC(Oc2nc(C)c(/N=C/N(C)C)cc2Br)CC1 [Q.055]
≥ 50%: [1] | [2] | [3] | Pyrenophora teres

Cc1nc(OC(C)c2cc(F)cc(F)c2)c(Br)cc1/N=C/N1CCCC1 (stereo not drawn) [Q.193]
≥ 50%: [1] | [2] | [3] | Pyrenophora teres

C=CCOC1CCC(Oc2nc(C)c(/N=C/N(C)CC)cc2Br)CC1 (stereo not drawn) [Q.212]
≥ 50%: [1] | [2] | [3] | Pyrenophora teres

CCN(C)/C=N/c1cc(Br)c(OC(C)c2cccc(CCc3ccccc3)c2)nc1C (stereo not drawn) [Q.329]
≥ 50%: [1] | [2] | [3] | Pyrenophora teres

CCN(C)/C=N/c1ccc(OC(C)Cc2ccccc2C)nc1C (stereo not drawn) [Q.354]
≥ 50%: [1] | [2] | [3] | Pyrenophora teres

CCC(Oc1ccc(/N=C/N(C)C(C)C)c(C)n1)c1cc(C)cc(C)c1 (stereo not drawn) [Q.361]
≥ 50%: [1] | [2] | [3] | Pyrenophora teres

CCN(C)/C=N/c1cc(Br)c(OC2Cc3ccc(C)cc3C2)nc1C (stereo not drawn) [Q.243]
≥ 50%: [1] | [2] | [3] | Pyrenophora teres

CCN(C)/C=N/c1cc(Br)c(OC2Cc3ccc(Br)cc3C2)nc1C (stereo not drawn) [Q.196]
≥ 50%: [1] | [2] | [3] | Pyrenophora teres

CCN(C)/C=N/c1cc(Br)c(OCc2ccccc2SC)nc1C [Q.335]
≥ 50%: [1] | [2] | [3] | Pyrenophora teres

CCN(C)/C=N/c1cc(Br)c(OC(C)c2cc(C)cc(C)c2)nc1C (stereo not drawn) [Q.203]
≥ 50%: [1] | [2] | [3] | Pyrenophora teres

CCN(C)/C=N/c1cc(Br)c(OC(C)CCc2ccc(OC)cc2)nc1C (stereo not drawn) [Q.013]
≥ 50%: [1] | [2] | [3] | Pyrenophora teres

CCN(C)/C=N/c1cc(Br)c(OC2CCc3c(cccc3OC)C2)nc1C (stereo not drawn) [Q.019]
≥ 50%: [1] | [2] | [3] | Pyrenophora teres

CCN(C)/C=N/c1cc(Br)c(OCc2ccccc2[S+](C)[O-])nc1C (stereo not drawn) [Q.336]
≥ 50%: [1] | [2] | [3] | Pyrenophora teres

CCN(C)/C=N/c1cc(Br)c(OCc2cccc(I)c2)nc1C [Q.174]
≥ 50%: [1] | [2] | [3] | Pyrenophora teres

CCN(C)/C=N/c1cc(C)c(OCCCC(C)C)nc1C [Q.007]
≥ 50%: [1] | [2] | [3] | Pyrenophora teres

CCN(C)/C=N/c1cc(Br)c(OC(C)Cc2cccc(F)c2)nc1C (stereo not drawn) [Q.218]
≥ 50%: [1] | [2] | [3] | Pyrenophora teres

CCN(C)/C=N/c1cc(Br)c(OC(C)Cc2ccccc2)nc1C (stereo not drawn) [Q.198]
≥ 50%: [1] | [2] | [3] | Pyrenophora teres

CCN(C)/C=N/c1cc(C)c(OC(C)c2cc(F)cc(F)c2)nc1C (stereo not drawn) [Q.184]
≥ 50%: [1] | [2] | [3] | Pyrenophora teres

CCN(C)/C=N/c1cc(Br)c(OC2CCN(S(=O)(=O)N(C)C)CC2)nc1C [Q.164]
≥ 50%: [1] | [2] | [3] | Pyrenophora teres

CCN(C)/C=N/c1cc(Br)c(OC2CCCC(Oc3ccccc3)C2)nc1C (stereo not drawn) [Q.241]
≥ 50%: [1] | [2] | [3] | Pyrenophora teres

C=Cc1cccc(COc2nc(C)c(/N=C/N(C)CC)cc2Br)c1 [Q.277]
≥ 50%: [1] | [2] | [3] | Pyrenophora teres

C=CCCCOc1nc(C)c(/N=C/N(C)CC)cc1Br [Q.034]
≥ 50%: [1] | [2] | [3] | Pyrenophora teres

CCN(C)/C=N/c1cc(Br)c(OCc2ccc3ncccc3c2)nc1C [Q.209]
≥ 50%: [1] | [2] | [3] | Pyrenophora teres

CCN/C=N/c1cc(Br)c(OCCCC(C)C)nc1C [Q.004]
≥ 50%: [1] | [2] | [3] | Pyrenophora teres

CCN(C)/C=N/c1cc(Br)c(OC2CCC(F)(F)CC2)nc1C [Q.375]
≥ 50%: [1] | [2] | [3] | Pyrenophora teres

CCN(C)/C=N/c1cc(Br)c(OC(C)(C)c2cc(C)no2)nc1C [Q.076]
≥ 50%: [1] | [2] | [3] | Pyrenophora teres
